Assay results published in article doi:10.1101/2024.09.13.612887 (2024).

What was measured:
[1] = test system: F. ulcerans ZTP riboswitch ITC construct RNA (aptamer domain) (RNA, riboswitch) UAUCAGUUAUAUGACUGACGGAACGUGGAAUUAACCACAUGAAGUAUAACGAUGACAAUGCCGACCGUCUGGGCG; assay: ITC; details: 150 mM KCl, 10 mM MgCl2
[2] = test system: S. ondontolytica ZTP riboswitch used for crystallography (64-nt) (RNA, riboswitch, 5'-hydroxyl (hammerhead-cleaved, lacks 5'-phosphate)) GGGUCGUGACUGGCGAACAGGUGGGAAACCACCGGGGAGCGACCCUUGCCGCCCGCCUGGGCAA; assay: X-ray crystallography; details: Mg2+, co-crystal structure
[3] = test system: F. ulcerans ZTP riboswitch SPR construct RNA (RNA, riboswitch) UAUCAGUUAUAUGACUGACGGAACGUGGAAUUAACCACAUGAAGUAUAACGAUGACAAUGCCGACCGUCUGGGCGUUCAUUAGCGGUAUUCCGGAAC …; assay: SPR; details: 150 mM KCl, 10 mM MgCl2; 50 mM HEPES-KOH pH 7.4, 0.005% Tween-20, 5% DMSO; apparent, no saturation, exceeds 1:1 Rmax
[4] = 50 mM HEPES-KOH pH 7.4, up to 3% DMSO, 37 °C
[5] = 50 mM HEPES-KOH pH 7.4, up to 3% DMSO, 37 °C, N.B. (>30 μM or not measurable)

Structure (SMILES) | KD [1, 4] [µM] | further results
NC(=O)c1nnn(-c2cccnc2)c1N |  | KD ([1]; 50 mM HEPES-KOH pH 7.4, up to 3% DMSO, 37 °C, text prints 13.7 ± 7.8): 13.5 ± 7.85 µM
NC(=O)c1ncn(-c2ccc(NCc3ccccc3)nc2)c1N | 13.8 ± 1.5 | 
NC(=O)c1ncn([C@H]2CCCNC2)c1N |  | KD [1, 5]: > 30 µM
CNc1ccc(-n2cnc(C(N)=O)c2N)cn1 | 2.40 ± 0.36 | 
NC(=O)c1ncn(Cc2ccccc2)c1N |  | KD [1, 5]: > 30 µM
NC(=O)c1ncn([C@@H]2CCCNC2)c1N |  | KD [1, 5]: > 30 µM
NC(=O)c1ncn(-c2cnc3ncccc3c2)c1N | 0.778 ± 0.28 | binding ([2]; 2.2 Å, partially refined): yes
NC(=O)c1ncn(Cc2ccncc2)c1N | 15.0 ± 7.1 | 
NC(=O)c1ncn(Cc2cnccn2)c1N |  | KD [1, 5]: > 30 µM
NC(=O)c1ncn(-c2ccc(-c3ncc[nH]3)nc2)c1N | 3.18 ± 0.44 | 
NC(=O)c1ncn(-c2ccc3cc[nH]c3c2)c1N | 4.99 ± 0.64 | 
NC(=O)c1ncn(-c2cccc3cccnc23)c1N |  | KD [1, 5]: > 30 µM
NC(=O)c1ncn(-c2ccc3[nH]ccc3c2)c1N | 3.20 ± 1.3 | 
NC(=O)c1cccc(-n2cnc(C(N)=O)c2N)c1 | 3.52 ± 0.60 | 
NC(=O)c1ncn(-c2ccc3cccnc3c2)c1N | 1.36 ± 0.17 | 
Cc1ncccc1-n1cnc(C(N)=O)c1N |  | KD [1, 5]: > 30 µM
NC(=O)c1ncn(-c2cccnc2)c1N |  | binding ([2]; 2.4 Å): yes
NC(=O)c1ncn(-c2cncnc2)c1N | 1.22 ± 0.45 | 
COc1ccncc1-n1cnc(C(N)=O)c1N |  | KD ([1]; 50 mM HEPES-KOH pH 7.4, 37 °C, table value, text b16 says KD >30 μM): 4.16 ± 0.68 µM
NC(=O)c1ncn(-c2cnc3cccnc3c2)c1N | 0.864 ± 0.21 | 
NC(=O)c1ncn(-c2ccc(-c3cnc[nH]3)cc2)c1N | 1.46 ± 0.21 | KD [3]: ~ 900 nM
NC(=O)c1ncn(-c2cccc(O)c2)c1N | 2.47 ± 0.37 | 
NC(=O)c1ncn(-c2ccc(Cl)nc2)c1N | 2.19 ± 1.4 | 
NC(=O)c1ncn(-c2ccc3ncccc3c2)c1N | 1.28 ± 0.26 | 
NC(=O)c1cn(-c2ccncc2)cn1 |  | KD [1, 5]: > 30 µM
COc1ccc(-n2cnc(C(N)=O)c2N)cn1 | 2.45 ± 0.44 | 
NC(=O)c1ncn(-c2ccccc2)c1N | 1.84 ± 0.41 | 
